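Following 48 hours of exposure in 96-well plates, responses at five concentrations were used to interpolate endpoints linearly. Here, GI50 denotes the concentration required for 50% inhibition of growth. TGI: total growth inhibition.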
Tests used:
Assay in all cases: NCI anticancer screen, dose series, 48 h
A549 NSCLC = tested on: A549 NSCLC
U251 CNS = tested on: U251 CNS
786-0 renal = tested on: 786-0 renal
SW-620 colon = tested on: SW-620 colon
A498 renal = tested on: A498 renal
KM12 colon = tested on: KM12 colon
HCT-116 colon = tested on: HCT-116 colon
OVCAR-3 ovarian = tested on: OVCAR-3 ovarian
OVCAR-4 ovarian = tested on: OVCAR-4 ovarian
SR leukemia = tested on: SR leukemia

Structure (SMILES) | TGI (A549 NSCLC) [µM] | TGI (U251 CNS) [µM] | TGI (786-0 renal) [µM] | TGI (SW-620 colon) [µM] | TGI (A498 renal) [µM] | TGI (KM12 colon) [µM] | TGI (HCT-116 colon) [µM] | TGI (OVCAR-3 ovarian) [µM] | TGI (OVCAR-4 ovarian) [µM] | TGI (SR leukemia) [µM] | GI50 (A549 NSCLC) [µM] | GI50 (SR leukemia) [µM] | GI50 (U251 CNS) [µM] | GI50 (786-0 renal) [µM] | GI50 (SW-620 colon) [µM] | GI50 (A498 renal) [µM] | GI50 (KM12 colon) [µM] | GI50 (OVCAR-3 ovarian) [µM] | GI50 (OVCAR-4 ovarian) [µM] | GI50 (HCT-116 colon) [µM]
O=C(CCC(=O)C(C(=O)c1ccccc1)c1ccccc1)Nc1cccc(C(F)(F)F)c1 (stereo not drawn) | > 100 | > 100 | > 100 | > 100 | > 100 | > 100 | > 100 | > 100 | > 100 |  |  |  |  |  |  |  |  |  |  | 
O=CC[C@H]1CCc2ccccc2C12CCC(=O)CC2 | > 100 |  | > 100 | > 100 | > 100 | > 100 | > 100 | > 100 | > 100 |  |  |  |  |  |  |  |  |  |  | 
Cc1ccc(S(=O)(=O)OCC23CCC(CC2)C2CC23)cc1 (stereo not drawn) | > 100 | > 100 | > 100 | > 100 | > 100 |  | > 100 | > 100 | > 100 | > 100 |  |  |  |  |  |  |  |  |  | 
CCC(=O)c1c(NOC2OC(COC(C)=O)C(OC(C)=O)C(OC(C)=O)C2OC(C)=O)nc(OC)n(C)c1=O (stereo not drawn) | > 100 | > 100 | > 100 | > 100 |  | > 100 | > 100 |  | > 100 | > 100 |  |  |  |  |  |  |  |  |  | 
COc1ccc(/C(C#N)=C/c2ccc(OC)c(OC)c2)cc1 | > 100 | > 100 | > 100 | > 100 | > 100 | > 100 | > 100 | > 100 | > 100 |  |  |  |  |  |  |  |  |  |  | 
C[C@@H](CO)[C@@H]1CCC=C2CC[C@]3(C)[C@H](CC[C@@H]4[C@@]5(C)CCCNC(C)(C)[C@@H]5CC[C@]43C)[C@H]21 | 5.04 | 3.46 | 3.82 | 3.62 | 23 | 4.09 |  | 4.87 | 5.02 | > 100 | 2.24 | 5.44 | 1.84 | 1.93 | 1.86 | 5.41 | 1.97 | 2.16 | 1.98 | 
O=[N+]([O-])c1cccc(-c2oc(C=Nc3ccccc3)c([N+](=O)[O-])c2-c2cccc([N+](=O)[O-])c2)c1 | > 100 | > 100 | > 100 | > 100 | > 100 | > 100 | > 100 | > 100 |  |  |  |  |  |  |  |  |  |  |  | 
C1=CC=C2NCCCNC3=CC=CC=CC3=NCCCN=C2C=C1 | > 100 | > 100 | > 100 | > 100 | > 100 | > 100 | > 100 | > 100 | > 100 |  |  |  |  |  |  |  |  |  |  | 
C=C1CC/C=C(\C)C(=O)C[C@@H]2[C@@H]1CC2(C)C | > 56 | 49.5 | 6.69 | 11.5 | > 30 | 39.1 | 7.06 | 20.7 | 6.48 |  |  |  |  |  |  |  |  |  |  | 
COc1cc(COC(=O)N(CC(=O)O)c2ccccc2)c([N+](=O)[O-])cc1OC | > 100 | > 100 | > 100 | > 100 | > 100 | > 100 |  | > 100 |  | > 100 |  |  |  |  |  |  |  |  |  | 
O=c1[nH]c(=O)n(C2CC(O)C(CO)O2)cc1C1=NC1 (stereo not drawn) | > 100 | > 100 | > 100 | > 100 | > 100 | > 100 | > 100 | > 100 | > 100 |  |  |  |  |  |  |  |  |  |  | 
NCCCNCCCCN(CCCN)/[N+]([O-])=N\O | > 100 |  | > 100 | > 100 |  | > 100 | > 100 | > 100 | > 100 | 83.9 |  |  |  |  |  |  |  |  |  | 
CC1OC(OC2C(O[C@H]3CC[C@@]4(C)C(=CC[C@H]5[C@@H]6C[C@@H]7O[C@]8(CC[C@H](C)CN8)[C@@H](C)[C@@H]7[C@@]6(C)CC[C@@H]54)C3)OC(CO)C(O)C2OC2OC(CO)C(O)C(O)C2O)C(O)C(O)C1O (stereo partly drawn) | 34.5 | > 100 | 51 | 39 | 42.9 | 34.9 | 39.9 |  | 37 | 61.6 |  |  |  |  |  |  |  |  |  | 
CN1CCN(c2ccc3nc(-c4ccc5nc(-c6ccc(OCCC(C)(C)C)cc6)[nH]c5c4)[nH]c3c2)CC1 | 17.7 | 3.81 | 8.33 | 3.96 | 35.1 | 4.2 |  | 16.8 | 25.5 | 8.05 | 4.69 | 2.9 | 2.16 | 2.7 | 2.12 | 17.5 | 1.91 | 5.22 | 10.1 | 
O=C(Cc1nc2ccccc2s1)Nc1cccc(C(F)(F)F)c1 | 45.4 |  | 27.2 | 43.2 | 22.3 | 30.5 |  | 31.8 | 30.3 |  |  |  |  |  |  |  |  |  |  | 
CC(=O)OC(CCC1(C)OC1COc1ccc(CCNC(=O)c2ccccc2)cc1)C(C)(C)OC(C)=O (stereo not drawn) | > 100 | > 100 | > 100 | > 100 |  | 33.7 | 45.5 | 54.5 | > 100 | > 100 |  |  |  |  |  |  |  |  |  | 
CN1c2ccccc2C(C)(C)C12C=Cc1cc(O)ccc1O2 (stereo not drawn) | 19.9 | 10.9 | 8.96 | 13.8 | 6.3 | 6.2 | 11.8 | 5.23 | 17.6 |  | 4.46 |  | 3.18 | 2.77 | 3.4 | 2.39 | 2.31 | 2.16 | 4.73 | 2.8
C1CCN(c2nc(=[N+]3CCCCC3)ss2)CC1 | > 100 | > 100 | > 100 | > 100 | > 100 | > 100 | > 100 |  | > 100 | > 100 |  |  |  |  |  |  |  |  |  | 
CN(C)c1ccc(Nc2cc(-c3cccc(OC(F)(F)F)c3)nc3ccc(N4CCCC4)cc23)cc1 | 3.22 | 3.16 | 3.24 |  | 10.6 |  |  | 3.14 | 3.77 |  | 1.7 |  | 1.74 | 1.71 |  | 2.47 |  | 1.74 | 1.98 | 
C[C@]1(CO)CCC[C@@]2(C)C1CC[C@H]1CC3C[C@]12CC[C@]3(C)O (stereo partly drawn) | > 100 | > 100 | > 100 | > 100 |  | > 100 | > 100 | > 100 | > 100 | > 100 |  |  |  |  |  |  |  |  |  | 
